According to patent US6303625A, “Triazolopyridines for the treatment of thrombosis disorders” (Ortho-McNeil Pharmaceutical, Inc., priority 1999, dated 2001):
No end group written: not given here.

Experiments:
gel-filtered platelets = assay: In vitro inhibition of thrombin-induced gel-filtered platelet aggregation; format: cell-based; details: Homo sapiens; for inhibition at 50 µM: read-out: Platelet Aggregation % Inh. (50 μM)
Protocol: In Vitro Inhibition of Thrombin-Induced Gel-Filtered Platelet Aggression Assay
The percentage of platelet aggregation is calculated as an increase in light transmission of compound-treated platelet concentrate vs. control-treated platelet concentrate. Human blood was obtained from drug free, normal donors into tubes containing […] sodium citrate. Platelet rich plasma (PRP) was collected by centrifugation of whole blood at 200×g for 10 min at 25° C. The PRP (5 mL) was gel filtered through Sepharose 2B (bed volume 50 mL), and the platelet count was adjusted to 2×10^7 platelets per sample. The following constituents were added to a siliconized cuvette: concentrated platelet filtrate and Tyrode's buffer (0.14M NaCl, 0.0027M KCl, 0.012M NaHCO3,0.76 mM Na2 HPO4, 0.0055M glucose, 2 mg/mL BSA and 5.0 mM HEPES @ pH 7.4) in an amount equal to 350 μl, 50 μl of 20 mM calcium and 50 μl of the test compound. Aggregation was monitored in a BIODATA aggregometer for the 3 min following the addition of agonist (thrombin 50 μl of 1 unit/mL).

GPIIb/IIIa [1] = target: T1, GPIIb/IIIa (Homo sapiens, UniProt P05106+P08514); assay: In vitro solid phase purified glycoprotein IIb/IIIa binding assay (fibrinogen binding); details: for inhibition at 50 µM: read-out: Fibrinogen Binding % Inh. (50 μM)
Protocol: In Vito Solid Phase Purified Glycoprotein IIB/IIA Binding Assay
The plate was covered and incubated overnight at 4° C. The GPIIb/IIa solution was discarded and 150 μl of 5% BSA was added and incubated at RT for 1-3 h. The plate was washed extensively with modified Tyrodes buffer. Biotinylated fibrinogen (25 μl/well) at 2×final concentration was added to the wells that contain the test compounds (25 μl/well). The plate was covered and incubated at RT for 2-4 h. Twenty minutes prior to incubation completion, one drop of Reagent A (Vecta Stain ABC Horse Radish Peroxidase kit, Vector Laboratories, Inc.) and one drop Reagent B were added with mixing to 5 mL modified Tyrodes buffer mix and let stand. The ligand solution was discarded and the plate washed (5×200 μl/well) with modified Tyrodes buffer. Vecta Stain HRP-Biotin-Avidin reagent (50 μl/well, as prepared above) was added and incubated at RT for 15 min. The Vecta Stain solution was discarded and the wells washed (5×200 μl/well) with modified Tyrodes buffer. Developing buffer (10 mL of 50 mM citrate/phosphate buffer @ pH 5.3, 6 mg o-phenylenediamine, 6 μl 30% H2 O2; 50 μl/well) was added and incubated at RT for 3-5 min, and then 2N H2 SO4 (50 μl/well) was added. The absorbance was read at 490 nm.

[2] = test system: ADP-induced ex vivo platelet aggregation; assay: Ex vivo dog study: duration of >50% inhibition of ADP-induced ex vivo platelet aggregation; format: in vivo; details: for Oral Dosing Duration (of >50% inhibition of ADP-induced ex vivo platelet aggregation): 1 mpk
Protocol: Adult mongrel dogs (8-13 kg) were anesthetized with sodium pentobarbital (35 mg/kg, i.v.) and artificially respired. Arterial blood pressure and heart rate were measured using a Millar catheter-tip pressure transducer inserted in a femoral artery. Another Millar transducer was placed in the left ventricle (LV) via a carotid artery to measure LV end diastolic pressure and indices of myocardial contractility. A lead II electrocardiogram was recorded from limb electrodes. Catheters were placed in a femoral artery and vein to sample blood and infuse drugs, respectively. Responses were continuously monitored using a Modular Instruments data acquisition system.
Arterial blood samples (5-9 ml) were withdrawn into tubes containing 3.8% sodium citrate to prepare platelet rich plasma (PRP) and to determine effects on coagulation parameters: prothrombin time (PT) and activated partial thromboplastin time (APTT). Separate blood samples (1.5 ml) were withdrawn in EDTA to determine hematocrit and cell counts (platelets, RBC's and white cells). Template bleeding times were obtained from the buccal surface using a symplate incision devise and Whatman filter paper.
Aggregation of PRP was performed using a BioData aggregometer. Aggregation of whole blood used a Chronolog impedance aggregometer. PT and APTT were determined on either a BioData or ACL 3000+ coagulation analyzer. Cells were counted with a Sysmex K-1000.
Compounds were solubilized in a small volume of dimethylformamide (DMF) and diluted with saline to a final concentration of 10% DMF. Compounds were administered by the intravenous route with a Harvard infusion pump. Doses was administered over a 15 min interval at a constant rate of 0.33 ml/min. Data were obtained after each dose and in 30 min intervals following the end of drug administration. Oral doses were administered as aqueous solutions via syringe.

[3] = test system: in vitro thrombin-induced platelet aggregation; details: L. Alig, J. Med. Chem. 1992, 35, 4393; read-out: IC50 against in vitro thrombin-induced platelet aggregation; cited from earlier work
GPIIb/IIIa [4] = target: T1, GPIIb/IIIa; details: background statement; cited from earlier work

| Molecule | IC50 (gel-filtered platelets) [µM] | inhibition at 50 µM (gel-filtered platelets) [%] | IC50 (GPIIb/IIIa [1]) [µM] | inhibition at 50 µM (GPIIb/IIIa [1]) [%] | Oral Dosing Duration (of >50% inhibition of ADP-induced ex vivo platelet aggregation) [2] [min] | Intravenous Dosing Duration (of >50% inhibition of ADP-induced ex vivo platelet aggregation) ([2]; intravenous, 0.1 mpk) [min] | IC50 [3] [µM] | inhibition of fibrinogen binding to GPIIb/IIIa (GPIIb/IIIa [4]) |
| --- | --- | --- | --- | --- | --- | --- | --- | --- |
| CC1(C(=O)NC[C@H](NC(=O)OCc2ccccc2)C(=O)O)CCCn2c(CCC3CCNCC3)nnc21 (stereo partly drawn) [Compound 8, β-[[[5,6,7,8-Tetrahydro-8-methyl-3-[2-(4-piperidinyl)ethyl]-1,2,4-triazolo[4,3-a]pyridin-8-yl]carbonyl]amino]-αS-benzyloxycarbonylamino-protanoic acid] | 2.1 | 100 | 0.0181 | 100 | < 30 |  |  |  |
| O=C(O)C[C@H](NC(=O)C1CCCn2c(/C=C/C3CCNCC3)nnc21)c1cccnc1 (stereo partly drawn) [Compound 12, β-[[[5,6,7,8-Tetrahydro-3-[2-(4-piperidinyl)E-ethylene]-1,2,4-triazolo[4,3-a]pyridin-8-yl]carbonyl]amino]-βS-3-pyridylpropanoic acid] | 0.03 | 100 | 0.00014 | 100 | 360 | 150 |  |  |
| CN(CC(=O)c1ccc(OCC(=O)O)c(OCC(=O)O)c1)C(=O)c1ccc(C(=N)N)cc1 [Ro-438857] |  |  |  |  |  |  | 0.094 |  |
| Arg-Gly-Asp |  |  |  |  |  |  |  | shown to inhibit fibrinogen binding to GPIIb/IIIa |
| HHLGGAKQAGDV [gamma-chain peptide region of fibrinogen (γ400-411)] |  |  |  |  |  |  |  | shown to inhibit fibrinogen binding to GPIIb/IIIa |
